Results published in patent US12448371B2, “Inhibitor compounds” (Cincera Therapeutics Pty Ltd, priority 2019, dated 2025).

Target: T1, Des1 (h) (Homo sapiens, UniProt O15121)
T1 construct: endogenous in cells; host or cells: parental Jurkat cells
T1 sequence (O15121 1-323): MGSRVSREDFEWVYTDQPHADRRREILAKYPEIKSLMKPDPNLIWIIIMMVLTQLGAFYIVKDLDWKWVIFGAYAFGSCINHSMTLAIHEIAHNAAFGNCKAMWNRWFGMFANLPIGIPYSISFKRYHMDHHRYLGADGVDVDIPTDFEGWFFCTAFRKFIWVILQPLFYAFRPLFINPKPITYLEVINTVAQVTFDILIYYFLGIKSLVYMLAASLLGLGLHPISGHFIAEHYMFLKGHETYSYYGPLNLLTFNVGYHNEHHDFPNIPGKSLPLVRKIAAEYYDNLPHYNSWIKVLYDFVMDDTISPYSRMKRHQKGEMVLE
Test: Measurement of Dihydroceramide Desaturase-1 (Des-1) activity in intact Jurkat cells labeled with DhCer-C6-NBD (HPLC)
Assay type: cell-based
Conditions: for IC50: intact Jurkat cells, given as concentration range, or <X / >X if measured at one concentration X only, read-out: Des1 (h) Jurkat IC50
Procedure: Measurement of Dihydroceramide Desaturase-1 (Des-1) Activity
Compounds were assessed for Des-1 inhibitory activity. Measurement of Des1 activity was performed by HPLC using intact Jurkat cells labeled with DhCer-C6-NBD as described previously (Munoz-Olaya, J. M. et al. ChemMedChem 2008, 3, 946-953) with modifications to enhance sensitivity and reproducibility. These modifications included the use of parental Jurkat cells, 0.5% serum in the culture media, and cell harvesting via centrifugation at 500×g to maximise ceramide extraction. Extracted samples (50 ul) were analysed on a Waters HPLC coupled to a fluorescence detector using a 30 cm C18 reverse-phase column eluted with 1 ml/min 20% H2O and 80% acetonitrile, both with a 0.1% of trifluoroacetic acid. NBD-labelled substrate and product were quantitated with an excitation and emission wavelengths of 465 nm and 530 nm, respectively.

| IC50 | inhibition at 1 µM (Jurkat cells) | % inhibition of Des1 at 10 μM (Jurkat cells, 10 μM) | % inhibition of Des1 at 0.1 μM (Jurkat cells) | Structure (SMILES) |
| --- | --- | --- | --- | --- |
| 100 to 1000 nM | – | – | – | O=C(NO)c1ccc(Nc2ncc(-c3ccc(Cl)cc3)o2)cn1 [Example 1, 5-((5-(4-Chlorophenyl)oxazol-2-yl)amino)-N-hydroxypicolinamide] |
| > 1000 nM | 42% | – | – | N/C(=N/O)c1ccc(Nc2ncc(-c3ccc(C4CC4)cn3)o2)cn1 [Example 62, 5-((5-(5-Cyclopropylpyridin-2-yl)oxazol-2-yl)amino)-N′-hydroxypicolinimidamide] |
| > 1000 nM | 15% | – | – | N/C(=N\O)c1cnc(Nc2nc(-c3ccc(C(F)(F)F)cn3)no2)cn1 [Example 85, N′-hydroxy-5-((3-(5-(trifluoromethyl)pyridin-2-yl)-1,2,4-oxadiazol-5-yl)amino)pyrazine-2-carboximidamide] |
| > 10000 nM | – | 26% | – | O=C(NO)c1ncc(Nc2nc(-c3ccc(Cl)cc3)cs2)cn1 [Example 9, 5-([4-(4-Chlorophenyl)-1,3-thiazol-2-yl]amino)-N-hydroxypyrimidine-2-carboxamide] |
| < 100 nM | – | – | – | N/C(=N\O)c1ccc(Nc2ncc(-c3ccc(C(F)(F)F)c(F)c3)o2)cn1 [Example 45, 5-((5-(3-Fluoro-4-(trifluoromethyl)phenyl)oxazol-2-yl)amino)-N′-hydroxypicolinimidamide] |
| < 1000 nM | – | – | – | N/C(=N\O)c1ccc(Nc2ncc(-c3ccc(C(F)(F)F)nc3)o2)cn1 [Example 59, N′-Hydroxy-5-((5-(6-(trifluoromethyl)pyridin-3-yl)oxazol-2-yl)amino)picolinimidamide] |
| < 1000 nM | – | – | – | Cc1nc(Nc2ccc(C(=O)NC[C@@H](O)CO)nc2)oc1-c1ccc(C(F)(F)F)cc1 [Compound 96, (R)—N-(2,3-dihydroxypropyl)-5-((4-methyl-5-(4-(trifluoromethyl)phenyl)oxazol-2-yl)amino)picolinamide] |
| < 1000 nM | – | – | – | N/C(=N\O)c1ncc(Nc2ncn(-c3ccc(C(F)(F)F)cc3)n2)cc1O [Example 31, N′,3-Dihydroxy-5-((1-(4-(trifluoromethyl)phenyl)-1H-1,2,4-triazol-3-yl)amino)picolinimidamide] |
| > 1000 nM | 8% | – | – | Cn1nc(-c2ccc(C(F)(F)F)cn2)cc1Nc1ccc(/C(N)=N\O)nc1 [Example 76, N′-Hydroxy-5-((1-methyl-3-(5-(trifluoromethyl)pyridin-2-yl)-1H-pyrazol-5-yl)amino)picolinimidamide] |
| 100 to 1000 nM | – | – | – | O=C(NO)c1ccc(Nc2nc(-c3ccc(C(F)(F)F)cc3)co2)cn1 [Example 14, N-Hydroxy-5-((4-[4-(trifluoromethyl)phenyl]-1,3-oxazol-2-yl)amino)picolinamide] |
| > 1000 nM | 26% | – | – | O=C(NCC(O)CO)c1ccc(Nc2cnn(-c3ccc(C(F)(F)F)cn3)c2)cn1 (racemic) [Compound 104, rac-N-(2,3-Dihydroxypropyl)-5-((1-(5-(trifluoromethyl)pyridin-2-yl)-1H-pyrazol-4-yl)amino)picolinamide] |
| > 1000 nM | 47% | – | – | N/C(=N/O)c1ccc(Nc2ncc(-c3cnc(C(F)(F)F)cn3)o2)cn1 [Example 66, N′-Hydroxy-5-((5-(5-(trifluoromethyl)pyrazin-2-yl)oxazol-2-yl)amino)picolinimidamide] |
| > 1000 nM | 30% | – | – | O=C(NC[C@@H](O)CO)c1ccc(Nc2ncn(-c3ccc(C(F)(F)F)cc3)n2)cn1 [Example 38, (R)—N-(2,3-Dihydroxypropyl)-5-((1-(4-(trifluoromethyl)phenyl)-1H-1,2,4-triazol-3-yl)amino)picolinamide] |
| > 1000 nM | 31% | – | – | Cn1nc(Nc2cnc(/C(N)=N/O)cn2)cc1-c1ccc(C(F)(F)F)cn1 [Compound 110, N′-Hydroxy-5-((1-methyl-5-(5-(trifluoromethyl)pyridin-2-yl)-1H-pyrazol-3-yl)amino)pyrazine-2-carboximidamide] |
| > 1000 nM | 44% | – | – | N=C(NCC(O)CO)c1ccc(Nc2ncc(-c3ccc(C(F)(F)F)cc3)o2)cn1 (racemic) [Compound 91, rac-N-(2,3-dihydroxypropyl)-5-((5-(4-(trifluoromethyl)phenyl)oxazol-2-yl)amino)picolinimidamide] |
| 1000 to 10000 nM | – | – | – | O=C(NO)c1ccc(Nc2nc(-c3ccc(C(F)(F)F)cc3)co2)nn1 [Example 13, N-Hydroxy-6-((4-(4-(trifluoromethyl)phenyl)oxazol-2-yl)amino)pyridazine-3-carboxamide] |
| 1 to 10 nM | – | – | – | O=C(NC[C@@H](O)CO)c1ccc(Nc2ncc(-c3ccc(C(F)(F)F)cc3)o2)cn1 [Example 36, (R)—N-(2,3-Dihydroxypropyl)-5-((5-(4-(trifluoromethyl)phenyl)oxazol-2-yl)amino)picolinamide] |

| IC50 | inhibition at 1 µM (Jurkat cells) | % inhibition of Des1 at 10 μM (Jurkat cells, 10 μM) | % inhibition of Des1 at 0.1 μM (Jurkat cells) | Structure (SMILES) |
| --- | --- | --- | --- | --- |
| < 1000 nM | – | – | – | O=c1c(O)c(Nc2ccc(Nc3ncc(-c4ccc(C(F)(F)F)cc4)o3)cn2)c1=O [Example 30, 3-Hydroxy-4-((5-((5-(4-(trifluoromethyl)phenyl)oxazol-2-yl)amino)pyridin-2-yl)amino)cyclobut-3-ene-1,2-dione] |
| > 1000 nM | 44% | – | – | N/C(=N\O)c1ccc(Nc2ncc(-c3ccc(C(F)(F)F)nn3)o2)cn1 [Compound 119, N′-Hydroxy-5-((5-(6-(trifluoromethyl)pyridazin-3-yl)oxazol-2-yl)amino)picolinimidamide] |
| – | – | – | 70% | O=C(NC[C@@H](O)CO)c1ccc(Nc2ncc(-c3ccc(F)cc3)o2)cn1 [Compound 98, (R)—N-(2,3-dihydroxypropyl)-5-((5-(4-fluorophenyl)oxazol-2-yl)amino)picolinamide] |
| 100 to 1000 nM | – | – | – | O=C(NO)c1ccc(Nc2ncc(-c3ccc(C(F)(F)F)cc3)o2)cn1 [Example 2, N-Hydroxy-5-((5-(4-(trifluoromethyl)phenyl)oxazol-2-yl)amino)picolinamide] |
| 0.1 to 1 nM | – | – | – | Cc1cc(Nc2ncc(-c3ccc(C(F)(F)F)cc3)o2)cc(=O)n1O [Example 27, 1-Hydroxy-6-methyl-4-((5-(4-(trifluoromethyl)phenyl)oxazol-2-yl)amino)pyridin-2(1H)-one] |
| > 1000 nM | 40% | – | – | N/C(=N\O)c1ncc(Nc2ncc(-c3ccc(C(F)(F)F)cn3)o2)cn1 [Example 58, N′-Hydroxy-5-((5-(5-(trifluoromethyl)pyridin-2-yl)oxazol-2-yl)amino)pyrimidine-2-carboximidamide] |
| > 1000 nM | 30% | – | – | CNNC(=O)c1ccc(Nc2ncc(-c3ccc(C(F)(F)F)cc3)o2)cn1 [Compound 94, N′-Methyl-5-((5-(4-(trifluoromethyl)phenyl)oxazol-2-yl)amino)picolinohydrazide] |
| < 1000 nM | – | – | – | CCN(O)C(=O)c1ccc(Nc2ncc(-c3ccc(C(F)(F)F)cc3)o2)cn1 [Example 32, N-Ethyl-N-hydroxy-5-((5-(4-(trifluoromethyl)phenyl)oxazol-2-yl)amino)picolinamide] |
| 1000 to 10000 nM | – | – | – | ONc1ccc(Nc2ncc(-c3ccc(C(F)(F)F)cc3)o2)cn1 [Example 4, N-(6-(Hydroxyamino)pyridin-3-yl)-5-(4-(trifluoromethyl)phenyl)oxazol-2-amine] |
| < 1000 nM | – | – | – | N/C(=N\O)c1cnc(Nc2nc(-c3ccc(Cl)cc3)no2)cn1 [Example 79, 5-((3-(4-chlorophenyl)-1,2,4-oxadiazol-5-yl)amino)-N′-hydroxypyrazine-2-carboximidamide] |
| > 1000 nM | 23% | – | – | CC(C)N(O)C(=O)c1ccc(Nc2ncc(-c3ccc(C(F)(F)F)cc3)o2)cn1 [Example 34, N-Hydroxy-N-isopropyl-5-((5-(4-(trifluoromethyl)phenyl)oxazol-2-yl)amino)picolinamide] |
| – | – | – | 86% | N/C(=N\O)c1ncc(Nc2ncc(-c3ccc(C(F)(F)F)cn3)o2)cc1F [Example 56, 3-Fluoro-N′-hydroxy-5-((5-(5-(trifluoromethyl)pyridin-2-yl)oxazol-2-yl)amino)picolinimidamide] |
| > 1000 nM | 36% | – | – | N/C(=N/O)c1ccc(Nc2ncc(-c3ccc(F)cn3)o2)cn1 [Compound 117, 5-((5-(5-Fluoropyridin-2-yl)oxazol-2-yl)amino)-N′-hydroxypicolinimidamide] |
| < 100 nM | – | – | – | N=C(NO)c1ccc(Nc2ncc(-c3ccc(F)cc3)o2)nn1 [Example 47, 6-((5-(4-Fluorophenyl)oxazol-2-yl)amino)-N′-hydroxypyridazine-3-carboximidamide] |
| < 1000 nM | – | – | – | N/C(=N\O)c1cnc(Nc2nc(-c3ccc(C(F)(F)F)cc3)no2)cn1 [Example 83, N′-Hydroxy-5-((3-(4-(trifluoromethyl)phenyl)-1,2,4-oxadiazol-5-yl)amino)pyrazine-2-carboximidamide] |
| 1 to 10 nM | – | – | – | N/C(=N\O)c1ccc(Nc2ncc(-c3ccc(C(F)(F)F)cc3)o2)nn1 [Example 53, N′-Hydroxy-6-((5-(4-(trifluoromethyl)phenyl)oxazol-2-yl)amino)pyridazine-3-carboximidamide] |
| < 1000 nM | – | – | – | Oc1ccc(Nc2nnc(-c3ccc(OC(F)(F)F)cc3)o2)nc1 [Example 67, 6-((5-(4-(Trifluoromethoxy)phenyl)-1,3,4-oxadiazol-2-yl)amino)pyridin-3-ol] |
